Experimental data published in US4310518A, “Cyclic hexapeptide somatostatin analogs” (Merck & Co., Inc., priority 1980, dated 1982).
Square brackets hold non-standard residues; d marks the D form. Peptide text beside a SMILES is read from it. NMeF = CN[C@@H](Cc1ccccc1)C(=O)O; NMeI = CC[C@H](C)[C@H](NC)C(=O)O; NMeL = CN[C@@H](CC(C)C)C(=O)O; NMeA = CN[C@@H](C)C(=O)O; dNMeA = CN[C@H](C)C(=O)O; Sar = CNCC(=O)O

Tests used:
[1] = tested on: growth hormone release from rat pituitary cells; assay: In vitro test for the inhibition of growth hormone release in cultured rat pituitary cells; type: cell-based; settings: multiples or fractions of the effect of somatostatin (=1), fiducial limits in parentheses, 4 hours incubation
Method: The instant cyclic hexapeptide analogs of somatostatin are tested and compared with the effects of somatostatin in an in vitro test for the inhibition of growth hormone. The test is described as follows:
Rat pituitaries were isolated according to the procedures of Vale and Grant "In vitro Pituitary Hormone Secretion Assay for Hypophysiotropic Substances" in Methods in Enzymology. Vol. XXXVII, eds. O'Malley, B. W. and Hardman, J. G. (Academic Press, Inc., New York) pp. 5-93 (1975).
After 4 days in culture, the cells were washed and incubated for 4 hours in Dulbecco-modified Eagle's medium in the presence or absence of graded doses of each analog of somatostatin. The medium was then collected for subsequent growth hormone determination by a double antibody radioimmunoassay for rat growth hormone."
The test results for some of the compounds of this invention are recorded below with the results for somatostatin listed first and given the arbitrary value of 1. The results for the instant compounds are given as multiples or fractions of the effect of somatostatin. The numbers in parentheses are the fiducial limits for the number preceding. The first of the instant compounds listed is the compound prepared in Examples 1-5. The compound is written slightly different, however, to conform to the order of the amino acids found in somatostatin.

[2] = tested on: pentagastrin evoked gastric secretion; assay: Inhibition of pentagastrin evoked gastric secretion in the chronic fistula dog; type: in vivo; settings: Dose 0.8 μg/ml./min., infusion 0-60 min., relative to placebo; for Gastric Secretion % Inhibition Acid Concentration 0-30 / Gastric Secretion % Inhibition Vol. 0-30: 0-30 min; for Gastric Secretion % Inhibition Acid Concentration 30-60 / Gastric Secretion % Inhibition Vol. 30-60: 30-60 min; for Gastric Secretion % Inhibition Acid Concentration 60-90 / Gastric Secretion % Inhibition Vol. 60-90: 60-90 min; for Gastric Secretion % Inhibition Acid Concentration 90-120 / Gastric Secretion % Inhibition Vol. 90-120: 90-120 min; for Gastric Secretion % Inhibition Vol. 0-30 / Gastric Secretion % Inhibition Vol. 30-60 / Gastric Secretion % Inhibition Vol. 60-90 / Gastric Secretion % Inhibition Vol. 90-120: output volume
Method: The effects of the instant cyclichexapeptide analogs of somatostatin are determined by the following procedure.
Compounds were tested for their ability to inhibit pentagastrin evoked gastric secretion in the chronic fistula dog. Female beagle dogs with a chronic gastric fistula were given pentagastrin (2.5 μg./kg./hour, i.v. from -60 to 120 min.) and gastric outputs were collected via the fistula cannula. Samples were analyzed at 30 minute intervals for volume (ml.) and titratable acid (mEq/L) (Titration to pH 7 with 0.01 N NaOH); total acid output (mEq) was calculated as the production of output volume and acid concentration. Test compounds were infused at a constant rate from 0 to 60 minutes. Data have been expressed as percent change of total acid output relative to a placebo trial in the same animals.

C[C@@H](O)[C@@H]1NC(=O)[C@H](CCCCN)NC(=O)[C@@H](Cc2c[nH]c3ccccc23)NC(=O)[C@H](Cc2ccccc2)NC(=O)[C@H](C)N(C)C(=O)[C@H](Cc2ccccc2)NC1=O [Cyclo(D-Trp-Lys-Thr-Phe-N-Me-Ala-Phe)] (cyclo(F[NMeA]F[dW]KT))
Growth Hormone Release Inhibition In Vitro [1]: 4.38(2.15-11.90)
Gastric Secretion % Inhibition Acid Concentration 0-30 [2]: 15%
Gastric Secretion % Inhibition Acid Concentration 30-60 [2]: 41%
Gastric Secretion % Inhibition Acid Concentration 60-90 [2]: 47%
Gastric Secretion % Inhibition Acid Concentration 90-120 [2]: 48%
Gastric Secretion % Inhibition Vol. 0-30 [2]: 91%
Gastric Secretion % Inhibition Vol. 30-60 [2]: 92%
Gastric Secretion % Inhibition Vol. 60-90 [2]: 90%
Gastric Secretion % Inhibition Vol. 90-120 [2]: 84%

C[C@H]1C(=O)N[C@@H](Cc2c[nH]cn2)C(=O)N[C@H](Cc2c[nH]c3ccccc23)C(=O)N[C@@H](CCCCN)C(=O)N[C@@H](CO)C(=O)N[C@@H](Cc2ccc(O)cc2)C(=O)N1C [Cyclo(N--Me--Ala--His--D-Trp-- Lys--Ser--Tyr)] (cyclo(H[dW]KSY[NMeA]))
Growth Hormone Release Inhibition In Vitro [1]: 0.38(0.16-0.75)

C[C@@H]1C(=O)N[C@@H](Cc2ccccc2)C(=O)N[C@H](Cc2c[nH]c3ccccc23)C(=O)N[C@@H](CCCCN)C(=O)N[C@@H]([C@@H](C)O)C(=O)N[C@@H](Cc2ccccc2)C(=O)N1C [Cyclo(N--Me--D-Ala-- Phe--D-Trp-- Lys--Thr--Phe)] (cyclo(F[dNMeA]F[dW]KT))
Growth Hormone Release Inhibition In Vitro [1]: 2.13(0.83-6.00)
Gastric Secretion % Inhibition Acid Concentration 0-30 [2]: 12%
Gastric Secretion % Inhibition Acid Concentration 30-60 [2]: 34%
Gastric Secretion % Inhibition Acid Concentration 60-90 [2]: 9%
Gastric Secretion % Inhibition Acid Concentration 90-120 [2]: 0%
Gastric Secretion % Inhibition Vol. 0-30 [2]: 50%
Gastric Secretion % Inhibition Vol. 30-60 [2]: 84%
Gastric Secretion % Inhibition Vol. 60-90 [2]: 0%
Gastric Secretion % Inhibition Vol. 90-120 [2]: 0%

CC[C@H](C)[C@H]1C(=O)N[C@@H](Cc2ccccc2)C(=O)N[C@H](Cc2c[nH]c3ccccc23)C(=O)N[C@@H](CCCCN)C(=O)N[C@@H]([C@@H](C)O)C(=O)N[C@@H](Cc2ccccc2)C(=O)N1C [Cyclo(N--Me--Ile--Phe--D-Trp-- Lys--Thr--Phe)] (cyclo(F[NMeI]F[dW]KT))
Growth Hormone Release Inhibition In Vitro [1]: 1.86(1.35-2.57)

CC(C)C[C@H]1C(=O)N[C@@H](Cc2ccccc2)C(=O)N[C@H](Cc2c[nH]c3ccccc23)C(=O)N[C@@H](CCCCN)C(=O)N[C@@H]([C@@H](C)O)C(=O)N[C@@H](Cc2ccccc2)C(=O)N1C [Cyclo(N--Me--Leu--Phe--D-Trp-- Lys--Thr--Phe)] (cyclo(F[NMeL]F[dW]KT))
Growth Hormone Release Inhibition In Vitro [1]: 0.49(0.19-0.98)

C[C@@H](O)[C@@H]1NC(=O)[C@H](CCCCN)NC(=O)[C@@H](Cc2c[nH]c3ccccc23)NC(=O)[C@H](Cc2ccccc2)NC(=O)[C@H](Cc2ccccc2)N(C)C(=O)[C@H](Cc2ccccc2)NC1=O [Cyclo(N--Me--Phe--Phe--D-Trp-- Lys--Thr--Phe)] (cyclo(F[NMeF]F[dW]KT))
Growth Hormone Release Inhibition In Vitro [1]: 13.3(9.6-18.1)

C[C@H]1C(=O)N[C@@H](Cc2c[nH]cn2)C(=O)N[C@H](Cc2c[nH]c3ccccc23)C(=O)N[C@@H](CCCCN)C(=O)N[C@@H](CO)C(=O)N[C@@H](Cc2c[nH]c3ccccc23)C(=O)N1C [Cyclo--(N--Me--Ala--His--D-Trp-- Lys--Ser--Trp)] (cyclo(H[dW]KSW[NMeA]))
Growth Hormone Release Inhibition In Vitro [1]: 1.45(0.9-2.06)

CC(C)[C@@H]1NC(=O)[C@H](CCCCN)NC(=O)[C@@H](Cc2c[nH]c3ccccc23)NC(=O)[C@H](Cc2ccc(O)cc2)NC(=O)[C@H](C)N(C)C(=O)[C@@H](Cc2ccccc2)NC1=O [Cyclo--(N--Me--Ala--Tyr--D-Trp-- Lys--Val--D-Phe)]
Growth Hormone Release Inhibition In Vitro [1]: 5.0(3.12-8.17)

CC(C)[C@@H]1NC(=O)[C@H](CCCCN)NC(=O)[C@@H](Cc2c[nH]c3ccccc23)NC(=O)[C@H](Cc2ccc(O)cc2)NC(=O)[C@H](C)N(C)C(=O)[C@H](Cc2ccccc2)NC1=O [Cyclo--(N--Me--Ala--Tyr--D-Trp-- Lys--Val--Phe)]
Growth Hormone Release Inhibition In Vitro [1]: 52(35-75)

CC(C)[C@@H]1NC(=O)[C@H](CCCCN)NC(=O)[C@@H](Cc2c[nH]c3ccccc23)NC(=O)[C@H](Cc2ccc(O)cc2)NC(=O)[C@H](C)N(C)C(=O)[C@H](Cc2c[nH]c3ccccc23)NC1=O [Cyclo--(N--Me--Ala--Tyr--D-Trp-- Lys--Val--Trp)] (cyclo(KVW[NMeA]Y[dW]))
Growth Hormone Release Inhibition In Vitro [1]: 26.9(17.2-40.3)

C[C@@H](O)[C@@H]1NC(=O)[C@H](CCCCN)NC(=O)[C@@H](Cc2c[nH]c3ccccc23)NC(=O)[C@H](Cc2ccccc2)NC(=O)CN(C)C(=O)[C@H](Cc2ccccc2)NC1=O [Cyclo--(Sar--Phe--D-Trp-- Lys--Thr--Phe)] (cyclo(F[Sar]F[dW]KT))
Growth Hormone Release Inhibition In Vitro [1]: 1.47(0.93-2.3)

Cyclo--(N--Me--Ala--O--I--Phe--D-Trp-- Lys--Val--Phe)
Growth Hormone Release Inhibition In Vitro [1]: 13.9(9.5-20.0)

Cyclo--(N--Me--Ala--O--Phe--D-Trp-- Lys--Val--L--Trp)
Growth Hormone Release Inhibition In Vitro [1]: 22.9(15.0-33.6)

Cyclo--(N--Me--Ala--Phe--D-Trp-- Lys--The--O--I--Phe)
Growth Hormone Release Inhibition In Vitro [1]: 12.1(5.2-23.4)

Cyclo--(N--Me--OABU--Phe--D-Trp-- Lys--Thr--Phe)
Growth Hormone Release Inhibition In Vitro [1]: 24.6(15.3-46.5)
